Reference: patent US11427548B2 (Arvinas Operations, Inc., priority 2015, dated 2022)
Where two headings read alike, the source gives them in different places.

Target: T1, Androgen Receptor (Homo sapiens, UniProt P10275)
T1 construct: endogenous in cells; host or cells: VCaP cells
T1 sequence (P10275 1-920): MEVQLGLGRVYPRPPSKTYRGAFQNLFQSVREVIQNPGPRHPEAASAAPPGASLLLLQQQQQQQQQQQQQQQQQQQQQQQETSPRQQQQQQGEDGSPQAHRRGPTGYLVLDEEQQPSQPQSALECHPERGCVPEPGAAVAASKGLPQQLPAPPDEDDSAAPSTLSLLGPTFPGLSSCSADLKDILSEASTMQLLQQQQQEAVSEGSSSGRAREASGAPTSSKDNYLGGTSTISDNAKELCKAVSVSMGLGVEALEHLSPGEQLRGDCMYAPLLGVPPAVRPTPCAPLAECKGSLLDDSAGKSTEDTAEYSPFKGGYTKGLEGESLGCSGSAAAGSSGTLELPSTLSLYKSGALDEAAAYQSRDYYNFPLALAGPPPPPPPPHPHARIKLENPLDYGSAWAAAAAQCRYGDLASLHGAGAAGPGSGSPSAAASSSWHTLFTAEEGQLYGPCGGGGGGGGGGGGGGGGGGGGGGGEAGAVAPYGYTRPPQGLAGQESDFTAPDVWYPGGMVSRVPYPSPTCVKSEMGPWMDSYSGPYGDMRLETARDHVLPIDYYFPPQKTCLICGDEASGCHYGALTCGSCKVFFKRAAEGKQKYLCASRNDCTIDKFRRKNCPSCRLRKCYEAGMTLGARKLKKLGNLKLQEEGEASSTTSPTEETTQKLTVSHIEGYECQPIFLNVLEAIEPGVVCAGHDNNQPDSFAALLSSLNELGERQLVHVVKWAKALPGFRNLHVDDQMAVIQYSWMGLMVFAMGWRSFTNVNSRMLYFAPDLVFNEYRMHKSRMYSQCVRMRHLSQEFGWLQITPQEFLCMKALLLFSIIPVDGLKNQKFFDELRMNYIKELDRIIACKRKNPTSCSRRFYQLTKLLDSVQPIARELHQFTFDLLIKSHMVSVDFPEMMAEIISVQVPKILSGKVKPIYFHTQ
Test: Androgen Receptor ELISA assay (PathScan AR ELISA) in VCaP cells: AR degradation, Dmax and DC50
Assay type: cell-based
Outline: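 VCaP cells in phenol red-free RPMI with 5% charcoal-stripped FBS were grown at least 3 days, then given compound as 7 half-log doses in 0.1% DMSO with 0.1 nM R1881 for 24 h. Lysates went into a sandwich AR ELISA with TMB read at 450 nm.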

[1] = VCaP cells; Table 35; read-out: VCaP DC50
[2] = VCaP, VCaP cells; Table 35; read-out: VCaP Dmax (%)
[3] = VCaP cells; Table 36; read-out: VCaP DC50
[4] = VCaP, VCaP cells; Table 36; read-out: VCaP Dmax (%)
[5] = VCaP cells; Table 34; read-out: VCaP DC50
[6] = VCaP, VCaP cells; Table 34; read-out: VCaP Dmax (%)

Row | DC50 [3] | Dmax [4] | Compound | further results
1 |  |  | Cc1ncsc1-c1ccc([C@H](C)NC(=O)[C@@H]2C[C@@H](O)CN2C(=O)[C@@H](NC(=O)CN2CC3CCC(C2)N3CCCc2ccc(C(=O)NC3C(C)(C)C(Oc4ccc(C#N)c(Cl)c4)C3(C)C)cc2)C(C)(C)C)cc1 (stereo partly drawn) [Example 808, (2S,4R)-1-((2S)-2-(2-(8-(3-(4-(((1r,3r)-3-(3-chloro-4-cyanophenoxy)-2,2,4,4-tetramethylcyclobutyl)carbamoyl)phenyl)propyl)-3,8-diazabicyclo[3.2.1]octan-3-yl)acetamido)-3,3-dimethylbutanoyl)-4-hydroxy-N-((S)-1-(4-(4-methylthiazol-5-yl)phenyl)ethyl)pyrrolidine-2-carboxamide] | Dmax (VCaP, read-out: VCaP Dmax (%)): 26 to 50%; DC50 (read-out: VCaP DC50; VCaP cells; Table 36): < 50 nM
2 |  |  | Cc1nccn1-c1ccc([C@H](C)NC(=O)[C@@H]2C[C@@H](O)CN2C(=O)[C@@H](NC(=O)COCCNc2ccc(-c3ccc(C(=O)N[C@H]4C(C)(C)[C@H](Oc5ccc(C#N)c(Cl)c5)C4(C)C)cc3)cn2)C(C)(C)C)cc1 [Example 425] | DC50 [1]: < 50 nM; Dmax [2]: > 71%
3 | < 50 nM | > 71% | CC[C@H](NC(=O)[C@@H]1C[C@@H](O)CN1C(=O)[C@@H](NC(=O)COCCN1CCN(c2ccc(C(=O)N[C@H]3C(C)(C)[C@H](Oc4ccc(C#N)c(Cl)c4)C3(C)C)cn2)CC1)C(C)(C)C)c1ccc(-c2scnc2C)cc1 [Example 649, N-((1r,3r)-3-(3-chloro-4-cyanophenoxy)-2,2,4,4-tetramethylcyclobutyl)-6-(4-(2-(2-(((S)-1-((2S,4R)-4-hydroxy-2-(((S)-1-(4-(4-methylthiazol-5-yl)phenyl)propyl)carbam-moyl)pyrrolidin-1-yl)-3,3-dimethyl-1-oxobutan-2-yl)amino)-2-oxoethoxy)ethyl)pipera-zin-1-yl)nicotinamide] | 
4 | < 50 nM | 51 to 70% | Cc1ncsc1-c1ccc([C@H](C)NC(=O)C2C[C@@H](O)CN2C(=O)C(NC(=O)COC(C)(C)CN2CCN(c3ccc(C(=O)NC4C(C)(C)C(Oc5ccc(C#N)c(Cl)c5)C4(C)C)cn3)CC2)C(C)(C)C)cc1 (stereo partly drawn) [Example 815, N-((1r,3r)-3-(3-chloro-4-cyanophenoxy)-2,2,4,4-tetramethylcyclobutyl)-6-(4-(2-(2-(((S)-1-((2S, 4R)-4-hydroxy-2-(((S)-1-(4-(4-methylthiazol-5-yl)phenyl)ethyl)carbamoyl)pyrrolidin-1-yl)-3,3-dimethyl-1-oxobutan-2-yl)amino)-2-oxoethoxy)-2-methylpropyl)piperazin-1-yl) nicotinamide] | 
5 | > 501 nM | < 25% | CO[C@@H]1C[C@@H](C(=O)N(C)Cc2ccc(-c3scnc3C)cc2)N(C(=O)[C@@H](N(C)C(=O)COCCCCCN(C)c2ccc(C(=O)N[C@H]3C(C)(C)[C@H](Oc4ccc(C#N)c(C(F)(F)F)c4)C3(C)C)nc2)C(C)(C)C)C1 [Example 718, N-((1r,3r)-3-(4-cyano-3-(trifluoromethyl)phenoxy)-2,2,4,4-tetramethylcyclobutyl)-5-((5-(2-(((S)-1-((2S,4R)-4-methoxy-2-(methyl(4-(4-methylthiazol-5-yl)benzyl)carbamoyl)pyrrolidin-1-yl)-3,3-dimethyl-1-oxobutan-2-yl)(methyl)amino)-2-oxoethoxy)pentyl)(meth-yl)amino)picolinamide] | 
6 |  |  | Cc1ncsc1-c1ccc([C@H](C)NC(=O)[C@@H]2C[C@@H](O)CN2C(=O)[C@@H](NC(=O)COCCOc2ccc(-c3ccc(C(=O)N[C@H]4C(C)(C)[C@H](Oc5ccc(C#N)c(Cl)c5)C4(C)C)cc3)cc2)C(C)(C)C)cc1 [Example 450] | DC50 [1]: < 50 nM; Dmax [2]: > 71%
7 |  |  | CCc1ncsc1-c1ccc(CNC(=O)[C@@H]2C[C@@H](O)CN2C(=O)[C@@H](NC(=O)COCCCCNc2ccc(C(=O)N[C@H]3C(C)(C)[C@H](Oc4ccc(C#N)c(Cl)c4)C3(C)C)cc2)C(C)(C)C)cc1 [Example 415] | DC50 [5]: < 50 nM; Dmax [6]: > 71%
8 | > 501 nM | < 25% | Cc1ncsc1-c1ccc([C@H](C)NC(=O)[C@@H]2C[C@@H](O)CN2C(=O)[C@H](c2cc(OCCN3CCN(c4ccc(C(=O)N[C@H]5C(C)(C)[C@H](Oc6ccc(C#N)c(Cl)c6)C5(C)C)cn4)CC3)no2)C(C)C)cc1 [Example 658, N-((1r,3r)-3-(3-chloro-4-cyanophenoxy)-2,2,4,4-tetramethylcyclobutyl)-6-(4-(2-((5-((S)-1-((2S,4R)-4-hydroxy-2-(((S)-1-(4-(4-methylthiazol-5-yl)phenyl)ethyl)carbam-oyl)pyrrolidin-1-yl)-3-methyl-1-oxobutan-2-yl)isoxazol-3-yl)oxy)ethyl)piperazin-1-yl)nicotinamide] | 
9 | < 50 nM |  | Cc1ncsc1-c1ccc([C@H](C)NC(=O)[C@@H]2C[C@@H](O)CN2C(=O)[C@@H](NC(=O)COCCc2cn(-c3ccc(C(=O)N[C@H]4C(C)(C)[C@H](Oc5ccc(C#N)c(C(F)(F)F)c5)C4(C)C)cc3)nn2)C(C)(C)C)cc1 [Example 719, (2S,4R)-1-((S)-2-(2-(2-(1-(4-(((1r,3r)-3-(4-cyano-3-(trifluoromethyl)phenoxy)-2,2,4,4-tetramethylcyclobutyl)carbamoyl)phenyl)-1H-1,2,3-triazol-4-yl)ethoxy)acetamido)-3,3-dimethylbutanoyl)-4-hydroxy-N-((S)-1-(4-(4-methylthiazol-5-yl)phenyl)ethyl)pyrrolidine-2-carboxamide] | Dmax (VCaP, read-out: VCaP Dmax (%), VCaP cells; Table 36): > 71%
10 |  |  | Cc1ncsc1-c1ccc(CNC(=O)[C@@H]2C[C@@H](O)CN2C(=O)[C@@H](NC(=O)COCCCNC(=O)c2ccc(C(=O)N[C@H]3C(C)(C)[C@H](Oc4ccc(C#N)c(Cl)c4)C3(C)C)cc2)C(C)(C)C)cc1 [Example 409] | DC50 [5]: < 50 nM; Dmax [6]: 51 to 70%
11 | < 50 nM | > 71% | Cc1ncsc1-c1ccc([C@H](C)NC(=O)[C@@H]2C[C@@H](O)CN2C(=O)[C@@H](NC(=O)CN2CCN(CCOc3ccc(C(=O)N[C@H]4C(C)(C)[C@H](Oc5ccc(C#N)c(Cl)c5)C4(C)C)cc3)CC2)C(C)(C)C)cc1 [Example 615, (2S,4R)-1-((S)-2-(2-(4-(2-(4-(((1r,3r)-3-(3-chloro-4-cyanophenoxy)-2,2,4,4-tetramethylcyclobutyl)carbamoyl)phenoxy)eth-yl)piperazin-1-yl)acetamido)-3,3-dimethylbutanoyl)-4-hydroxy-N-((S)-1-(4-(4-methylthiazol-5-yl)phenyl)ethyl)pyrrolidine-2-carboxamide] | 
12 | < 50 nM | 51 to 70% | Cc1ncsc1-c1ccc([C@H](C)NC(=O)[C@@H]2C[C@@H](O)CN2C(=O)[C@@H](NC(=O)COCCN2CCN(c3ccc(C(=O)N[C@H]4C[C@@H](Oc5ccc(C#N)c(Cl)c5)C4(C)C)cn3)CC2)C(C)(C)C)cc1 [Example 850, N-((1S,3R)-3-(3-chloro-4-cyanophenoxy)-2,2-dimethylcyclobutyl)-6-(4-(2-(2-(((S)-1-((2S, 4R)-4-hydroxy-2-(((S)-1-(4-(4-methylthiazol-5-yl)phenyl)ethyl)carbamoyl)pyrrolidin-1-yl)-3,3-dimethyl-1-oxobutan-2-yl)amino)-2-oxoethoxy)ethyl)piperazin-1-yl) nicotinamide] | 
13 | > 501 nM | < 25% | Cc1ncsc1-c1ccc(CNC(=O)[C@@H]2C[C@@H](O)CN2C(=O)[C@H](C(C)C)N2Cc3ccc(N4CCN(CCCc5ccc(C(=O)N[C@H]6C(C)(C)[C@H](Oc7ccc(C#N)c(Cl)c7)C6(C)C)cc5)CC4)cc3C2=O)cc1 [Example 774, (2S,4R)-1-((S)-2-(6-(4-(3-(4-(((1r,3r)-3-(3-chloro-4-cyanophenoxy)-2,2,4,4-tetramethylcyclobutyl)carbamoyl)phenyl)propyl)piperazin-1-yl)-1-oxoisoindolin-2-yl)-3-methylbutanoyl)-4-hydroxy-N-(4-(4-methylthiazol-5-yl)benzyl)pyrrolidine-2-carboxamide] | 

Row | Compound | DC50 [3] | Dmax [4] | further results
14 | Cc1ncsc1-c1ccc([C@H](C)NC(=O)[C@@H]2C[C@@H](O)CN2C(=O)[C@@H](NC(=O)CN2CCN(CC3(Cc4ccc(C(=O)N[C@H]5C(C)(C)[C@H](Oc6ccc(C#N)c(C(F)(F)F)c6)C5(C)C)cc4)COC3)CC2)C(C)(C)C)cc1 [Example 741, (2S,4R)-1-((S)-2-(2-(4-((3-(4-(((1r,3r)-3-(4-cyano-3-(trifluoromethyl)phenoxy)-2,2,4,4-tetramethylcyclobutyl)carbamoyl)benzyl)oxetan-3-yl)methyl)piperazin-1-yl)acetamido)-3,3-dimethylbutanoyl)-4-hydroxy-N-((S)-1-(4-(4-methylthiazol-5-yl)phenyl)ethyl)pyrrolidine-2-carboxamide] | < 50 nM |  | Dmax (VCaP, read-out: VCaP Dmax (%)): 51 to 70%
